Assay results taken from ChEMBL document CHEMBL4351016 (Eur J Med Chem, 2019).
Activity calls are given as the source filed them. The rule behind the calls is not given here.

What was measured:
CWR22R [1] = experiment: Antiproliferative activity against AR-positive human 22Rv1 cells harboring ARE14 construct assessed as growth inhibition after 24 hrs by resazurin dye based fluorescence assay; assay type: functional; settings: 22Rv1, 24 h
[2] = target: T1, Androgen receptor (Homo sapiens) (UniProt P10275); experiment: Inhibition of R1881-stimulated AR transcriptional activity in AR-positive human VCaP cells assessed as NKX3.1 protein expression at 20 uM after 24 hrs by immunoblot analysis; assay type: cell-based
T1 sequence (whole entry): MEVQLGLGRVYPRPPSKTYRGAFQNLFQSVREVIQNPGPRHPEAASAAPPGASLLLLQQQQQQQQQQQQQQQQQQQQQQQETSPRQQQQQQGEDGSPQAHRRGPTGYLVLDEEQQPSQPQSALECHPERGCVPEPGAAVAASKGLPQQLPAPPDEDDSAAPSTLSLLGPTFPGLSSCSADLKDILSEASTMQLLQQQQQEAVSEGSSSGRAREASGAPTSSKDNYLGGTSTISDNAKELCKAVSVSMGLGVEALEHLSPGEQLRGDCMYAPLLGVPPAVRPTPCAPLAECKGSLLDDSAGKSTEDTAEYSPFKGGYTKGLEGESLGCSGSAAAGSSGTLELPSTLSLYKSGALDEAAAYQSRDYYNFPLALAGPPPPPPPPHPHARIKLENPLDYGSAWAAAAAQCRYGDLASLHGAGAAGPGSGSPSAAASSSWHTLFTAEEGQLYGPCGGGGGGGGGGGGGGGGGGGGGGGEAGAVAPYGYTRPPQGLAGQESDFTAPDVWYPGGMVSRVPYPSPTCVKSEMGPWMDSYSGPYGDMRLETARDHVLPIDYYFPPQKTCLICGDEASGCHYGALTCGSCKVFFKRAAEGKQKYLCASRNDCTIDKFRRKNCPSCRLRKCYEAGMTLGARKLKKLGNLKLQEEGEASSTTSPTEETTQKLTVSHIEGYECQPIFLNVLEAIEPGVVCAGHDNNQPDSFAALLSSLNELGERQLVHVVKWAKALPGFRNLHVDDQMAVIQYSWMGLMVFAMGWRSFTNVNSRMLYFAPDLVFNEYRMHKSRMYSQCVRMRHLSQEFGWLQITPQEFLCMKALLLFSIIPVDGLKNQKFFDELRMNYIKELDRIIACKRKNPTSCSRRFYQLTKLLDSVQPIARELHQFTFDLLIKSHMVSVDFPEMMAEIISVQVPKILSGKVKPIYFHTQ

LNCaP C4-2 [3] = experiment: Antiproliferative activity against AR-positive human C4-2 cells assessed as growth inhibition after 72 hrs by resazurin dye based fluorescence assay; assay type: functional; settings: LNCaP C4-2, 72 h
[4] = target: T1, Androgen receptor (Homo sapiens); experiment: Inhibition of AR transcriptional activity in AR-positive human 22Rv1 cells harboring ARE14 construct assessed as downregulation of NKX3.1 protein expression at 5 uM after 24 hrs by immunoblot analysis
CWR22R [5] = experiment: Effect on AR-V7 protein expression in AR-positive human 22Rv1 cells harboring ARE14 construct at 5 uM after 24 hrs by immunoblot analysis; assay type: functional, cell-based
[6] = target: T1, Androgen receptor (Homo sapiens); experiment: (§1) Inhibition of R1881 induced-AR transcriptional activity in AR-positive human 22Rv1 cells harboring ARE14 construct after 24 hrs by luciferase assay
Androgen receptor = target: T2, Androgen receptor (Homo sapiens, UniProt P10275); experiment: as §1
T2 sequence (P10275 whole entry): T1 sequence (whole entry)

CWR22R [7] = experiment: Inhibition of colony formation in AR-positive human 22Rv1 cells harboring ARE14 construct at 0.625 to 10 uM incubated for 10 days by crystal violet staining based analysis; assay type: functional, cell-based
[8] = target: T1, Androgen receptor (Homo sapiens); experiment: Inhibition of R1881-stimulated AR transcriptional activity in AR-positive human VCaP cells assessed as PSA protein expression at 20 uM after 24 hrs by immunoblot analysis; assay type: cell-based
[9] = target: T1, Androgen receptor (Homo sapiens); experiment: Inhibition of R1881-stimulated AR transcriptional activity in AR-positive human VCaP cells assessed as decrease in NKX3.1 protein expression at 20 uM after 48 hrs by immunoblot analysis; assay type: cell-based
VCaP [10] = experiment: Downregulation of AR protein expression in R1881-stimulated AR-positive human VCaP cells at 20 uM after 48 hrs by immunoblot analysis; assay type: functional, cell-based
[11] = target: T1, Androgen receptor (Homo sapiens); experiment: Inhibition of R1881-stimulated AR transcriptional activity in AR-positive human VCaP cells assessed as decrease in PSA protein expression at 20 uM after 48 hrs by immunoblot analysis; assay type: cell-based
CWR22R [12] = experiment: Induction of apoptosis in R1881-activated AR-positive human 22Rv1 cells harboring ARE14 construct assessed as cleaved PARP level at 5 uM after 24 hrs by immunoblot analysis; assay type: functional, cell-based
BJ = experiment: Antiproliferative activity against human BJ cells assessed as growth inhibition after 24 hrs by resazurin dye based fluorescence assay; assay type: functional
CWR22R [13] = experiment: Antiproliferative activity against AR-positive human 22Rv1 cells harboring ARE14 construct assessed as growth inhibition after 72 hrs by resazurin dye based fluorescence assay; assay type: functional; settings: 22Rv1, 72 h
[14] = target: T1, Androgen receptor (Homo sapiens); settings: at 10 µM
Description: Inhibition of R1881 induced-AR transcriptional activity in AR-positive human 22Rv1 cells harboring ARE14 construct at 10 uM after 24 hrs by luciferase assay relative to control

VCaP [15] = experiment: Antiproliferative activity against AR-positive human VCaP cells assessed as growth inhibition after 72 hrs by resazurin dye based fluorescence assay; assay type: functional
[16] = target: T1, Androgen receptor (Homo sapiens); experiment: Inhibition of R1881 induced-AR transcriptional activity in AR-positive human 22Rv1 cells harboring ARE14 construct assessed as suppression of PSA expression at 5 uM after 24 hrs by immunoblot analysis
VCaP [17] = experiment: Induction of apoptosis in R1881-stimulated AR-positive human VCaP cells assessed as PARP cleavage at 20 uM after 24 to 72 hrs by immunoblot analysis; assay type: functional, cell-based
VCaP [18] = experiment: Induction of apoptosis in R1881-stimulated AR-positive human VCaP cells assessed as caspase-3/7 activation at 20 uM using Ac-DEVD-AMC as substrate after 24 to 72 hrs by fluorescence based microplate reader analysis; assay type: functional, cell-based
PC-3 [19] = experiment: Antiproliferative activity against AR-negative human PC3 cells assessed as growth inhibition after 72 hrs by resazurin dye based fluorescence assay; assay type: functional; settings: PC-3, 72 h
[20] = target: T1, Androgen receptor (Homo sapiens); experiment: Inhibition of R1881 induced-AR transcriptional activity in AR-positive human 22Rv1 cells harboring ARE14 construct assessed as suppression of NKX3.1 expression at 5 uM after 24 hrs by immunoblot analysis
CWR22R [21] = experiment: Antiproliferative activity against AR-positive human 22Rv1 cells harboring ARE14 construct assessed as cell viability at 40 uM after 72 hrs by resazurin dye based fluorescence assay; assay type: functional; settings: 22Rv1, 72 h, read-out: Activity
PC-3 [22] = experiment: Antiproliferative activity against AR-negative human PC3 cells assessed as cell viability at 40 uM after 72 hrs by resazurin dye based fluorescence assay; assay type: functional; settings: PC-3, 72 h, read-out: Activity
LNCaP C4-2 [23] = experiment: Antiproliferative activity against AR-positive human C4-2 cells assessed as cell viability at 40 uM after 72 hrs by resazurin dye based fluorescence assay; assay type: functional; settings: LNCaP C4-2, 72 h, read-out: Activity
VCaP [24] = experiment: Antiproliferative activity against AR-positive human VCaP cells assessed as cell viability at 40 uM after 72 hrs by resazurin dye based fluorescence assay; assay type: functional; settings: read-out: Activity

CC(=O)O[C@H]1CC[C@@]2(C)C(=CC[C@@H]3[C@@H]2CC[C@]2(C)c4c(C)nc5[nH]c6ccccc6c5c4C[C@@H]32)C1 was tested, and the GI50 (CWR22R [1]) was greater than 50 µM, the inhibition [2] was “inactive” and the GI50 (LNCaP C4-2 [3]) was 1700 nM. For the same compound, the “NKX3.1 protein downregulation (active/not active)” value [4] was “Active”, the Activity (CWR22R [5]) was “inactive” and the inhibition [6] was “Dose-dependent effect”. For the same compound, the IC50 (Androgen receptor) was 315 nM, the inhibition (CWR22R [7]) was “Active” and the inhibition [8] was “inactive”. For the same compound, the inhibition [9] was “Active”, the inhibition (VCaP [10]) was “Active” and the inhibition [11] was “Active”. The Activity (CWR22R [12]) was “inactive”, the GI50 (BJ) was greater than 50 µM and the GI50 (CWR22R [13]) was 1400 nM. The inhibition [14] was 29%, the GI50 (VCaP [15]) was 2000 nM and the inhibition [16] was “Active”. The Activity (VCaP [17]) was “Active”, the Activity (VCaP [18]) was “Active” and the GI50 (PC-3 [19]) was greater than 100 µM. For the same compound, the inhibition [20] was “Active”.

Compound CNC(=O)c1ccc(N2C(=S)N(c3ccc(C#N)c(C(F)(F)F)c3)C(=O)C2(C)C)cc1F [ENZALUTAMIDE] has a viability at 40 µM (CWR22R [21]) of 84%, a viability at 40 µM (PC-3 [22]) of 74% and a GI50 (LNCaP C4-2 [3]) greater than 40000 nM. The viability at 40 µM (LNCaP C4-2 [23]) was 91.5%, the viability at 40 µM (VCaP [24]) was 61.2% and the GI50 (CWR22R [13]) was greater than 40000 nM. It also gave a GI50 (VCaP [15]) greater than 40000 nM and a GI50 (PC-3 [19]) greater than 40 µM.
